From US6911455B2, “Methods for preparing pharmaceutical formulations” (SmithKline Beecham Corporation, priority 1999, dated 2005)
Where “and” joins values, the source holds several entries; their conditions need not be identical. Equal values may be shown once.

Experiments:
[1] = Surface tension analysis (DuNouy ring method); assay type: physicochemical
From the text: Aggregation of the histamine releaser in the reference solution and the comparative solution(s) can be measured by measuring the surface tension of each of the reference solution and the comparative solution(s) using the DuNouy ring method, as described in PHYSICAL PHARMACY: PHYSICAL CHEMICAL PRINCIPLES IN THE PHARMACEUTICAL SCIENCES, Editors: Alfred Martin, James Swarbrick, Arthur Cammarata, Third Edition, Lea Et Febiger, Philadelphia, 1983. Surface tension may provide a measure of the critical micelle concentration of the histamine releaser in solution and for this reason is an indicator of aggregation of the histamine releaser in the solution. […]
The surface tension properties of the histamine liberating agent can be evaluated using the DuNouy ring method. […]
The force required to detach the ring in this manner is provided by a torsion wire and is recorded in dynes on a calibrated dial. […]
The tensiometer is calibrated with filtered water and the surface tension of a 50 mg/mL solution of Compound 1 in water is evaluated at room temperature.
The surface tension of each solution is evaluated at room temperature and the results are recorded in a curve of surface tension (y-axis) versus concentration of drug (x-axis).

[2] = Proton NMR relaxation rates (T1, T2) as measure of aggregation; assay type: physicochemical; conditions: for T1 / T2: D2O saline (150 mM NaCl)
From the text: There are two types of NMR relaxation, spin-lattice and spin-spin relaxation, referred to as T1 and T2 values, respectively. T1 and T2 are rate constants which measure the relaxation of NMR magnetization back to equilibrium (hereinafter collectively referred to as “NMR relaxation rates”). For small molecules in what is called the extreme narrowing limit, both T1 and T2 increase in inverse proportion to the rotational tumbling rate tc, which, in turn, is directly proportional to the average size of the aggregate. Thus, for small molecules, increases in T1 and/or T2 rates with the addition of excipient to the solution containing the histamine releaser, in the absence of significant changes in the viscosity of the solution, indicates a decrease in aggregation.
Compound 1 and excipient (in the various amounts noted below) are dissolved in 200 μL of D2O with 0.15 M NaCl adjusted to pD 3.0 with NaOD and/or DCl for compound stability reasons. Deuterated saline solution is used in the reference solution because critical compound peaks (or signals) overlap when deuterated water is employed. Samples in a titration series are prepared by serial dilutions. All NMR spectra are recorded at 30° C. on a Varian Unity Plus 500 MHz spectrometer. Spectra are referenced to D2O at 4.65 ppm. All spectra are processed using Varian VNMR® software v6.1a. T1 and T2 relaxation rates are measured using the standard inversion-recovery and Carr-Purcell-Meiboom-Gill (CPMG) experiments respectively, both of which are provided with the Varian software. CPMG experiments are described in M. Bulsing, et al., J. Chem. Soc. Chem. Commun. 1201-3 (1981); R. Freeman et al., IN DYNAMIC NMR SPECTROSCOPY, eds. L. Jackman and F. Cotton (1975) pp. 131-162, Academic Press, London and New York; and D. Rabenstein, et al., J. Magn. Reson. 64:541-546 (1985).
A series of solutions with increasing concentrations of Compound 1 in D2O saline, pD 3.0 are prepared and the NMR relaxation rate constants measured. Both T1S and T2S are measured because the drug, with a molecular weight of 1064.51, could lie outside the extreme motional narrowing limit for NMR, in which case, T1S would be expected to decrease and T2S would be expected to increase with a decrease in aggregation. See, K. Wüthrich, NMR OF PROTEINS AND NUCLEIC ACIDS, (1986) John Wiley Sons, New York.
A series of solutions containing 80 mM Compound 1 with increasing concentrations of d4-citrate in D2O saline, pD 3.0, are prepared, and the NMR relaxation rates are measured. The data obtained is summarized in Table 2 and reported graphically in FIG. 2.
A series of solutions containing 80 mM Compound 1 and varying concentrations of CaCl2 and d4-citrate in D2O saline, pD 3.0, are prepared, and the NMR relaxation rates are measured.

[3] = 80 mM Compound 1, d4-citrate 0.78 mM, pD 3
[4] = 80 mM Compound 1, d4-citrate 1.56 mM, pD 3
[5] = 80 mM Compound 1, d4-citrate 3.13 mM, pD 3
[6] = 80 mM Compound 1, d4-citrate 6.25 mM, pD 3
[7] = 80 mM Compound 1, d4-citrate 12.5 mM, pD 3
[8] = 80 mM Compound 1, d4-citrate 25 mM, pD 3
[9] = 80 mM Compound 1, d4-citrate 50 mM, pD 3
[10] = 80 mM Compound 1, d4-citrate 100 mM, pD 3
[11] = vinyl proton, 20 mM Compound 1, pD 3, 30° C.
[12] = vinyl proton, 40 mM Compound 1, pD 3, 30° C.
[13] = vinyl proton, 80 mM Compound 1, no excipient (reference solution), pD 3, 30° C.
[14] = vinyl proton, 160 mM Compound 1, pD 3, 30° C.

With `COc1cc2c(cc1OC)[C@H](c1cc(OC)c(OC)c(OC)c1)[N@@+](C)(CCCOC(=O)/C=C(\Cl)C(=O)OCCC[N@+]1(C)CCc3cc(OC)c(OC)cc3[C@H]1Cc1cc(OC)c(OC)c(OC)c1)CC2.[Cl-].[Cl-]` [Compound 1, (Z)-2-chloro-1-{3-{(1R,2S)-6,7-dimethoxy-2-methyl-1-[(3,4,5-trimethoxyphenyl)methyl]-1,2,3,4-tetrahydro-2-isoquinolinio}propyl}-4-{3-[(1S,2R)-6,7-dimethoxy-2-methyl-1-(3,4,5-trimethoxyphenyl)-1,2,3,4-tetrahydro-2-isoquinolinio]propyl}-2-butenedioate dichloride] the “surface tension versus concentration” value ([1]; 1-50 mg/mL in water, room temperature, FIG. 1) was “concentration dependent surface tension lowering”, the critical micelle concentration ([1]; in water) was “about 14 mM” and the “slowing of relaxation rates compared to the reference solution” value ([2]; 80 mM Compound 1, 50 mM d4-citrate, D2O saline, pD 3) was “at least 25%”. For the same compound, the “change in the T1 value (slowing of the relaxation rate) compared to the reference solution” value ([2]; 80 mM Compound 1, CaCl2 + d4-citrate, all but the two lowest concentrations of CaCl2 of Table 3) was “greater than 25%”, the “d4-citrate concentration giving maximal effect on decreasing aggregation” value ([2]; 80 mM Compound 1, D2O saline, pD 3) was 50 mM and the T1 ([2]; 80 mM Compound 1, d4-citrate 0.78 mM + CaCl2 100 mM, pD 3) was 2.78 s. The T1 [2, 3] was 1.53 s, the T2 [2, 3] was 0.57 s and the T1 [2, 4] was 1.65 s. For the same compound, the T2 [2, 4] was 0.59 s, the T1 [2, 5] was 1.69 s and the T2 [2, 5] was 0.67 s. It also gave a T1 ([2]; 80 mM Compound 1, d4-citrate 5 mM + CaCl2 3.13 mM, pD 3) of 1.45 s, a T1 ([2]; 80 mM Compound 1, d4-citrate 5 mM + CaCl2 6.25 mM, pD 3) of 1.47 s and a T1 ([2]; 80 mM Compound 1, d4-citrate 5 mM + CaCl2 12.5 mM, pD 3) of 1.51 s. The T1 ([2]; 80 mM Compound 1, d4-citrate 5 mM + CaCl2 25 mM, pD 3) was 1.89 s, the T1 ([2]; 80 mM Compound 1, d4-citrate 5 mM + CaCl2 50 mM, pD 3) was 1.94 s and the T1 ([2]; 80 mM Compound 1, d4-citrate 5 mM + CaCl2 100 mM, pD 3) was 2.14 s. For the same compound, the T1 [2, 6] was 1.24 s, the T2 [2, 6] was 0.69 s and the T1 [2, 7] was 2.09 s. The T2 [2, 7] was 1.01 s, the T1 [2, 8] was 2.03 s and the T2 [2, 8] was 0.87 s. For the same compound, the T1 ([2]; 80 mM Compound 1, d4-citrate 50 mM + CaCl2 100 mM, pD 3) was 2.26 s, the T1 [2, 9] was 2.13 s and the T2 [2, 9] was 1.31 s. It also gave a T1 [2, 10] of 1.96 s, a T2 [2, 10] of 0.85 s and a critical micelle concentration ([2]; in saline (D2O saline, pD 3)) of 40 to 80 mM. The T1 ([2]; vinyl proton, 10 mM Compound 1, pD 3, 30° C.) was 2.05 s, the T1 [2, 11] was 2.30 s and the T2 [2, 11] was 2.04 s. For the same compound, the T1 [2, 12] was 2.49 s, the T2 [2, 12] was 1.96 s and the T1 [2, 13] was 1.20 s and 1.2 s. For the same compound, the T2 [2, 13] was 0.38 s, the T1 [2, 14] was 0.83 s and the T2 [2, 14] was 0.13 s.
